According to US10952438B2, “Pesticidal composition and method for controlling pests” (ISHIHARA SANGYO KAISHA, LTD., priority 2017, dated 2021):

Tests used:
Type in all cases: in vivo
[1] = tested on: Comstock mealybug (Pseudococcus comstocki); assay: Test Example 3: same test as Test Example 1, different flonicamid and D-limonene concentrations; conditions: 168 h, first instar larvae, 7 days after application, read-out: Corrected mortality
From the text: (§1) A plastic cup (diameter 9 cm, height: 4 cm) filled with tap water was covered with a plastic lid (diameter 9 cm, with a hole having a diameter of 0.5 cm at its center portion), and an absorbent cotton sheet (diameter 9 cm) as shown in FIG. 1 was placed thereon. The cut portion of the absorbent cotton sheet was put into the plastic cup through the hole at the center portion of the lid and dipped in the tap water. Filter paper (diameter 9 cm) was placed on the absorbent cotton sheet, and a kidney bean primary leaf was further placed thereon so that the abaxial side faced upward. The kidney bean primary leaf was covered with filter paper (diameter 9 cm, with a hole having a diameter of 3 cm at its center portion) to prepare a leaf disk.
(§2) Thirty first instar larvae of Comstock mealybug (Pseudococcus comstocki) were released on the hole at the center portion of the leaf disk, and the leaf disk was left at rest in a breeding room (25° C., humidity: 60%). Two days later, the number of surviving larvae in the leaf disk was examined, and then a chemical solution at predetermined concentrations of active ingredients was sprayed on the leaf disc by a rotary spraying apparatus (tower sprayers TS-301) in an application amount corresponding to 100 L/10 a, and the leaf disk was left at rest in the breeding room. Seven days after application, the number of surviving larvae was examined, and the difference with the number of surviving larvae before application was taken as the mortality. The same test was conducted using tap water as a negative control, the corrected mortality (%) was calculated in accordance with the formula 1, and the results are shown in Table 1. Further, in accordance with the Colby's formula, the theoretical value (%) was calculated based on the obtained corrected mortality and shown in brackets in Table 1. The composition of the present invention has a synergistic pesticidal effect when the corrected mortality is higher than the theoretical value by the Colby's formula. The test was conducted three times. Corrected mortality (%)=100×((morality in treated area−mortality in control area)/(100−mortality in control area)) Formula 1
The test was conducted in the same manner as in Test Example 1 except that the concentrations of flonicamid and D-limonene were different.

[2] = tested on: Comstock mealybug (Pseudococcus comstocki); assay: Test Example 1: test on effects against Comstock mealybug, leaf disk spray; conditions: foliar, 168 h, first instar larvae, 7 days after application, read-out: Corrected mortality
From the text: as §1, §2

[3] = tested on: Comstock mealybug (Pseudococcus comstocki); assay: Test Example 2: same test as Test Example 1, different flonicamid concentration; conditions: 168 h, first instar larvae, 7 days after application, read-out: Corrected mortality
From the text: as §1
as §2, with “Corrected mortality (%)=100×((morality in treated area−mortality in control area)/(100−mortality in control area)) Formula 1” left out

Row | SMILES | mortality at 80 ppm ([1]; flonicamid 80 ppm alone) [%] | mortality at 160 ppm ([1]; flonicamid 160 ppm alone) [%] | mortality at 10 ppm ([2]; flonicamid 10 ppm alone) [%] | mortality at 20 ppm ([2]; flonicamid 20 ppm alone) [%] | mortality at 160 ppm ([3]; flonicamid 160 ppm alone) [%] | mortality at 180 ppm ([1]; D-limonene 180 ppm alone) [%] | mortality at 360 ppm ([1]; D-limonene 360 ppm alone) [%] | mortality at 720 ppm ([2]; D-limonene 720 ppm alone) [%] | mortality at 1440 ppm ([2]; D-limonene 1440 ppm alone) [%] | mortality at 720 ppm ([3]; D-limonene 720 ppm alone) [%] | mortality at 1440 ppm ([3]; D-limonene 1440 ppm alone) [%]
1 | N#CCNC(=O)c1cnccc1C(F)(F)F [Flonicamid, N-cyanomethyl-4-trifluoromethyl-3-pyridinecarboxamide] | 25.5 | 55 | 7.9 | 16.1 | 68.8 | – | – | – | – | – | –
2 | C=C(C)[C@H]1CC=C(C)CC1 [D-Limonene, (4R)-p-menth-1,8-diene] | – | – | – | – | – | 0 | 35.1 | 7.7 | 27.7 | 4.5 | 21.3
